Test results from patent US4297357A, “N-Phenethylacetamide compounds and process for preparation thereof” (Daiichi Seiyaku Co., Ltd., priority 1978, dated 1981).
Structures can show the parent of a compound that is named as a salt. Blank lines part the entries; values can stand above or below the compound they belong to.

Assays:
Stress Ulcer = experiment: Inhibitory Effect on Stress Ulcer in Rat (Water Immersion Restraint Method); assay type: in vivo; details: water immersion restraint 21° C.; for inhibition in vivo at 100 mg/kg / inhibition in vivo at 200 mg/kg / inhibition in vivo at 400 mg/kg: Rattus norvegicus
Protocol: In this experiment, test compounds were administered as the free base, in the form of the hydrochloric acid salts or in the form of the hydrate. | Inhibitory Effect on Stress Ulcer in Rat |Inhibitory Effect on Stress Ulcer in Rat |Inhibitory Effect on Stress Ulcer in Rat Note 2. Inhibitory effect on Stress Ulcer was examined according to Water Immersion Restraint Method disclosed in Japanese Journal of Pharmacology, Vol. 18, 9 (1968). Note 3. As test animals, seven rats weighing about 300 g were used for each dosage level. Note 4. Test compounds were injected intraperitoneally or administered orally before 30 minutes of water immersion restrain. Note 5. Test animals were immersed and restrained in water at 21° C. for 20 hours in experiment of Tables 2 and 3 and at 21° C. for 7 hours in experiment of Table 4.

[1] = isothermal absorption curve, stability of hydrate under high humidity; assay type: physicochemical
Protocol: (§1) It was also confirmed by thin layer chromatography that the hydrate was stable in methanol at room temperature for 48 hours. This means that it is possible to use methanol as a solvent in producing pharmaceutical preparations. It was further confirmed that a mixture of the hydrate of this invention with various kinds of additives such as carriers, diluents, etc., was stable under accelerated conditions, i.e., under high humidity at an elevated temperature for one month or under the light irradiation from 2,500 lux for one month.

[2] = stability of hydrate in methanol by thin layer chromatography; assay type: physicochemical; details: room temperature, 48 hours
Protocol: as §1

[3] = Stability of Mixture of Hydrate with Various Kinds of Additives (one month storage), color change; assay type: physicochemical; design: key to color change: --: no color change; ±: slight color change; +: clear color change
Protocol: as §1
Stability of Mixture of Hydrate with Various
Kinds of Additives (one month storage)
The meaning of the symbols is as follows.
Samples were prepared by well mixing 100 mg of the hydrate with 100 mg of
the additive except for magnesium stearate and talc. In case of using
magnesium stearate or talc as the additive, 10 mg of the hydrate was used

ulcer = details: The Pharmacological Basis of Therapeutics, 4th Edition, 234 (1970); cited from earlier work
cardiovascular system = details: Pharmacometrics, Vol. 8, 835-846 (1974); cited from earlier work
[4] = tested on: Secretion of Gastric Acids Induced by Insuline; experiment: Inhibitory effect on secretion of gastric acids induced by insuline (modified Shield's Method); assay type: in vivo; details: rat, i.v., insuline 4 ug/kg
Protocol: Accordingly, the compounds of this invention are very useful as a unique type of anti-ulcer agent. […] The results obtained in this experiment are shown in Table 5 and Table 6 below. |Inhibitory Effects on Secretion of Gastric Acids |Induced by Insuline (dose: 4 ug/kg, i.v.)

[5] = tested on: Secretion of Gastric Acids Induced by Carpronium Chloride; experiment: Inhibitory effect on secretion of gastric acids induced by carpronium chloride (modified Shield's Method); assay type: in vivo; details: rat, i.v., carpronium chloride 8-10 μg/rat
Protocol: Accordingly, the compounds of this invention are very useful as a unique type of anti-ulcer agent. […] The results obtained in this experiment are shown in Table 5 and Table 6 below. |Inhibitory Effects on Secretion of Gastric Acids Induced |by Carponium Chloride (dose: 8-10 μg/rat, i.v.)

[6] = ip, 20 h, intraperitoneal, 100 mg/kg

SMILES: COc1ccc(CCNC(=O)CNc2cccc(C(N)=O)c2)cc1OC [drawing 15]
inhibition in vivo at 100 mg/kg (Stress Ulcer; [6]): 53%

SMILES: COc1ccc(CCNC(=O)CNc2ccc(C(N)=O)cc2)cc1OC
inhibition in vivo at 100 mg/kg (Stress Ulcer; [6]): 20%

SMILES: CCN1CCCC1CNC(=O)c1cc(S(N)(=O)=O)ccc1OC (centres unmarked) [Sulpiride, N-[(1-ethyl-2-pyrrolidinyl)methyl]-2-methoxy-5-sulfamoylbenzamide, reference compound]
inhibition in vivo at 100 mg/kg (Stress Ulcer; [6]): 27%
inhibition in vivo at 100 mg/kg (Stress Ulcer; po, 7 h, 100 mg/kg): 29%
inhibition in vivo at 200 mg/kg (Stress Ulcer; po, 7 h): 20%
inhibition in vivo at 400 mg/kg (Stress Ulcer; po, 7 h): 39%
inhibition in vivo at 100 mg/kg (Stress Ulcer; po, 20 h, 100 mg/kg): 5%
inhibition in vivo at 200 mg/kg (Stress Ulcer; po, 20 h): 4%
inhibition in vivo at 400 mg/kg (Stress Ulcer; po, 20 h): 11%

SMILES: COc1ccc(CCNC(=O)CNc2ccc(Cl)c(C(N)=O)c2)cc1OC
inhibition in vivo at 100 mg/kg (Stress Ulcer; [6]): 35%

SMILES: COc1ccc(CCNC(=O)CNc2cc(OC)c(C(N)=O)cc2Cl)cc1OC
inhibition in vivo at 100 mg/kg (Stress Ulcer; [6]): 21%

SMILES: COc1ccc(CCNC(=O)CNC(=O)c2ccccc2OC)cc1OC
inhibition in vivo at 100 mg/kg (Stress Ulcer; [6]): 50%

SMILES: CNc1nc(Cl)c(SC)c(NCC(=O)NCCc2ccc(OC)c(OC)c2)n1
inhibition in vivo at 100 mg/kg (Stress Ulcer; [6]): 17%

SMILES: COc1ccc(CCNC(=O)CNc2cccc(S(N)(=O)=O)c2)cc1OC
inhibition in vivo at 100 mg/kg (Stress Ulcer; [6]): 47%

stability under high humidity ([1]; high humidity at an elevated temperature): very stable
relative critical humidity ([1]; isothermal absorption curve): had not relative critical humidity
stability in methanol [2]: stable
color change ([3]; additive Calcium Phosphate Dibasic, one month storage, condition shown as drawing 6 (high humidity at an elevated temperature)): --
color change ([3]; additive Calcium Phosphate Dibasic, one month, light 2500 lux): --
color change ([3]; additive Cornstarch, one month storage, condition shown as drawing 6 (high humidity at an elevated temperature)): --
color change ([3]; additive Cornstarch, one month, light 2500 lux): --
color change ([3]; additive Crystalline Cellulose, one month storage, condition shown as drawing 6 (high humidity at an elevated temperature)): --
color change ([3]; additive Crystalline Cellulose, one month, light 2500 lux): --
color change ([3]; additive Hydroxypropylcellulose, one month storage, condition shown as drawing 6 (high humidity at an elevated temperature)): --
color change ([3]; additive Hydroxypropylcellulose, one month, light 2500 lux): --
color change ([3]; additive Hydroxypropylmethylcellulose, one month storage, condition shown as drawing 6 (high humidity at an elevated temperature)): ±
color change ([3]; additive Hydroxypropylmethylcellulose, one month, light 2500 lux): --
color change ([3]; additive Lactose, one month storage, condition shown as drawing 6 (high humidity at an elevated temperature)): --
color change ([3]; additive Lactose, one month, light 2500 lux): --
color change ([3]; additive Macrogol 6000, one month storage, condition shown as drawing 6 (high humidity at an elevated temperature)): --
color change ([3]; additive Macrogol 6000, one month, light 2500 lux): --
color change ([3]; additive Magnesium Stearate, one month storage, condition shown as drawing 6 (high humidity at an elevated temperature)): --
color change ([3]; additive Magnesium Stearate, one month, light 2500 lux): --
color change ([3]; additive Mannitol, one month storage, condition shown as drawing 6 (high humidity at an elevated temperature)): --
color change ([3]; additive Mannitol, one month, light 2500 lux): --
color change ([3]; additive Polyvinyl Alcohol, one month storage, condition shown as drawing 6 (high humidity at an elevated temperature)): --
color change ([3]; additive Polyvinyl Alcohol, one month, light 2500 lux): --
color change ([3]; additive Sucrose, one month storage, condition shown as drawing 6 (high humidity at an elevated temperature)): --
color change ([3]; additive Sucrose, one month, light 2500 lux): --
color change ([3]; additive Talc, one month storage, condition shown as drawing 6 (high humidity at an elevated temperature)): --
color change ([3]; additive Talc, one month, light 2500 lux): --
stability of mixture with additives ([3]; in words, high humidity at an elevated temperature for one month or light irradiation from 2,500 lux for one month): stable
SMILES: COc1ccc(CCNC(=O)CNc2cccc(C(N)=O)c2)cc1OC [Compound 4, 2-(3-carbamoylphenylamino)-N-(3,4-dimethoxyphenethyl)acetamide.3H2 O]
inhibition in vivo at 100 mg/kg (Stress Ulcer; po, 7 h, 100 mg/kg): 23%
inhibition in vivo at 200 mg/kg (Stress Ulcer; po, 7 h): 36%
inhibition in vivo at 400 mg/kg (Stress Ulcer; po, 7 h): 70%

SMILES: COc1ccc(CCNC(=O)CNc2ccc(Cl)cc2C(N)=O)cc1OC
inhibition in vivo at 100 mg/kg (Stress Ulcer; [6]): 34%

SMILES: NCCc1ccc(O)c(O)c1 [Dopamine, 3,4-dihydroxyphenethylamine]
anti-ulcer activity (ulcer): has anti-ulcer activity
action on cardiovascular system (cardiovascular system): acts strongly on cardiovascular system

SMILES: COc1ccc(CCNC(=O)CNc2cccc(C(N)=O)c2)cc1OC [drawing 16]
Inhibitory Effect (Stress Ulcer; intraperitoneal, 100 mg/kg, 20 hours): 52%

SMILES: COc1ccc(CCNC(=O)CNc2ccccc2)cc1OC [drawing 8]
inhibition in vivo at 100 mg/kg (Stress Ulcer; [6]): 42%

SMILES: COc1ccc(CCNC(=O)CNc2cc(Cl)ccc2C(N)=O)cc1OC [Compound 1, 2-(2-carbamoyl-5-chlorophenylamino)-N-(3,4-dimethoxyphenethyl)acetamide]
Inhibition ([4]; 50 mg/kg): 50%
inhibition in vivo at 100 mg/kg (Stress Ulcer; po, 20 h, 100 mg/kg): 5%
inhibition in vivo at 200 mg/kg (Stress Ulcer; po, 20 h): 17%
inhibition in vivo at 400 mg/kg (Stress Ulcer; po, 20 h): 18%
Inhibition ([5]; 50 mg/kg): 0%

SMILES: COc1ccc(C(N)=O)c(NCC(=O)NCCc2ccc(OC)c(OC)c2)c1
inhibition in vivo at 100 mg/kg (Stress Ulcer; [6]): 44%

SMILES: COc1ccc(CCNC(=O)CNc2cccc(Cl)c2)cc1OC
inhibition in vivo at 100 mg/kg (Stress Ulcer; [6]): 36%

SMILES: COc1ccc(CCNC(=O)CNc2cc(N)ncn2)cc1OC
inhibition in vivo at 100 mg/kg (Stress Ulcer; [6]): 27%

SMILES: COc1ccc(CCNC(=O)CNc2cccc(C(N)=O)c2)cc1OC.Cl [Compound 2, 2-(3-carbamoylphenylamino)-N-(3,4-dimethoxyphenethyl)acetamide hydrochloride]
Inhibition ([4]; 10 mg/kg): 80%
inhibition in vivo at 100 mg/kg (Stress Ulcer; po, 20 h, 100 mg/kg): 5%
inhibition in vivo at 200 mg/kg (Stress Ulcer; po, 20 h): 21%
inhibition in vivo at 400 mg/kg (Stress Ulcer; po, 20 h): 33%
Inhibition ([5]; 50 mg/kg): 0%
Inhibition ([5]; 100 mg/kg): 0%

SMILES: COc1ccc(CCNC(=O)CNc2ccccc2)cc1OC [Compound 3, 2-(phenylamino)-N-(3,4-dimethoxyphenethyl)acetamide hydrochloride]
inhibition in vivo at 100 mg/kg (Stress Ulcer; po, 20 h, 100 mg/kg): 20%
inhibition in vivo at 200 mg/kg (Stress Ulcer; po, 20 h): 20%
inhibition in vivo at 400 mg/kg (Stress Ulcer; po, 20 h): 25%

SMILES: COc1ccc(CCNC(=O)CNc2cc(Cl)ccc2C(N)=O)cc1OC [drawing 11]
inhibition in vivo at 100 mg/kg (Stress Ulcer; [6]): 38%
